# Data reported in patent publication US8318928B2, “Fused imidazole carboxamides as TRPV3 modulators” (Glenmark Pharmaceuticals, S.A., priority 2008, dated 2012).
# Target: T1, Human TRPV3 expressing CHO cells (Homo sapiens, UniProt Q8NET8)
# T1 construct: expressed in transfected cells; host or cells: CHO cells, kept under G-418 selection
# T1 sequence (Q8NET8 1-790): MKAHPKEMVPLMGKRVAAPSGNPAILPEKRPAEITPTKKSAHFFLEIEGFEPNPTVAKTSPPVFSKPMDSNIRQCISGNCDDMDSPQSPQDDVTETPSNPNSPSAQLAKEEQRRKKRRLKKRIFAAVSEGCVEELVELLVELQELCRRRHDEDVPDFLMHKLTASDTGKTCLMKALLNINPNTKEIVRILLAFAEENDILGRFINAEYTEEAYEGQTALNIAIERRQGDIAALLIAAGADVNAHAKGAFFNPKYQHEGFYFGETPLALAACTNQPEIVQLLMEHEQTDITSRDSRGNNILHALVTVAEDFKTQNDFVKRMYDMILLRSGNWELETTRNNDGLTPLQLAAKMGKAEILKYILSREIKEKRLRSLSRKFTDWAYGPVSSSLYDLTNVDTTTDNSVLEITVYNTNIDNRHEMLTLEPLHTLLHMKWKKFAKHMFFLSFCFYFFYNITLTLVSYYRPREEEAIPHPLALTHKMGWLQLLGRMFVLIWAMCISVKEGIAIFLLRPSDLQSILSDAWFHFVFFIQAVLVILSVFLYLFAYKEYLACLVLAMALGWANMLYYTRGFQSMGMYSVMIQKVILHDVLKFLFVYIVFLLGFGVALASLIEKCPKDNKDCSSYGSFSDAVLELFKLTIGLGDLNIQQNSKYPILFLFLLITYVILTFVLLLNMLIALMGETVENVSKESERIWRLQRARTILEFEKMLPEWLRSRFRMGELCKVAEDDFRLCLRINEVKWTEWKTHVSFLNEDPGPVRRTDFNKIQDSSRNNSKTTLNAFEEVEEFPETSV
# Test: 45Calcium uptake assay: inhibition of 2-APB induced cellular uptake of radioactive calcium
# Type: cell-based
# Conditions: 2-APB 500 μM; for IC50: class symbols; for inhibition at 1 µM / Percentage inhibition at 1.0 μM: compound at 1.0 μM; for inhibition at 1 µM: read-out: Percentage inhibition at 1.0 μM; for inhibition at 10 µM / Percentage inhibition at 10.0 μM: compound at 10.0 μM; for inhibition at 10 µM: read-out: Percentage inhibition at 10.0 μM
# Text: Certain illustrative compounds within the scope of the present invention are screened for TRPV3 activity according to a modified procedure described in (a) Tóth, A. et al. Life Sciences 2003, 73, 487-498. (b) McNamara C, R. et al. Proc. Natl. Acad. Sci. U.S.A., 2007, 104, 13525-13530. The screening of the compounds may be carried out by other methods and procedures known to persons skilled in the art.
# Screening for TRPV3 Antagonist Using the ^45Calcium Uptake Assay
# The inhibition of TRPV3 receptor activation was followed as inhibition of 2-aminoethxydiphenylborate (2-APB) induced cellular uptake of radioactive calcium. Test compounds were dissolved in dimethyl sulfoxide (DMSO) to prepare 20 mM stock solution and then diluted using plain medium with DMEM/F-12 containing 1.8 mM CaCl2 to get desired concentration. Final concentration of DMSO in the reaction was 0.5% (v/v). Human TRPV3 expressing CHO cells were grown in DMEM/F-12 medium with 10% FBS, 1% penicillin-streptomycin solution, 400 μg/mL of G-418. Cells were seeded 24 h prior to the assay in 96 well plates so as to get ˜50,000 cells per well on the day of experiment. Cells were treated with test compounds for 10 minutes followed by addition of 2-APB at a final concentration of 500 μM and 5 μCi/mL ^45Ca^+2 for 4 minutes. Cells were washed and lysed using buffer containing 1% Triton X-100, 0.1% deoxycholate and 0.1% SDS. Radioactivity in the lysate was measured in Packardt Top count after addition of liquid scintillant. Concentration response curves were plotted as a % of maximal response obtained in the absence of test antagonist. IC50 value was calculated from concentration response curve by nonlinear regression analysis using GraphPad PRISM software.
# Percentage inhibition at concentrations of 1.0 μM and 10.0 μM are given in the table along with IC50 (nM) details for selected examples.
Compound,IC50 [nM],inhibition at 1 µM [%],inhibition at 10 µM [%],Percentage inhibition at 1.0 μM [%],Percentage inhibition at 10.0 μM [%]
"COc1cccc(/C=C/c2nc3sccn3c2C(=O)Nc2nc(C(F)(F)F)cs2)c1OCC(C)C [Example 6, 6-{(E)-2-[2-(Isobutoxy)-3-methoxyphenyl]vinyl}-N-[4-(trifluoromethyl)-1,3-thiazol-2-yl]imidazo[2,1-b][1,3]thiazole-5-carboxamide]",250 to 1000,93,98.8,,
"COc1cccc(/C=C/c2nc3sccn3c2C(=O)N2CCN(c3ccc(C(F)(F)F)cn3)CC2)c1OCC1CC1 [Example 4, 6-[(E)-2-(2-Cyclopropylmethoxy-3-methoxyphenyl)vinyl]imidazo[2,1-b][1,3]thiazol-5-yl-4-(5-trifluoromethyl-2-pyridyl)piperazinomethanone]",,36.2,91.7,,
"CC(C)(C)COc1c(/C=C/c2nc3sccn3c2C(=O)Nc2nc(C3CC3)cs2)cccc1OC(F)F [Example 23, 6-{(E)-2-[2-(2,2-Dimethylpropoxy)-3-(difluoromethoxy)phenyl]vinyl}-N-(4-cyclo-propyl-1,3-thiazol-2-yl)imidazo[2,1-b][1,3]thiazole-5-carboxamide]",< 100,93.2,90,,
"CC(C)(C)COc1c(/C=C/c2nc3sccn3c2C(=O)NCCC#N)cccc1OC(F)F [Example 30, N-(2-Cyanoethyl)-6-{(E)-2-[3-(difluoromethoxy)-2-(2,2-dimethylpropoxy)phenyl]vinyl}imidazo[2,1-b][1,3]thiazole-5-carboxamide]",,21.1,94,,
"COc1cccc(/C=C/c2nc3sccn3c2C(=O)N2CCCc3ccccc32)c1OCC1CC1 [Example 3, 1-({6-[(E)-2-(2-Cyclopropylmethoxy-3-methoxyphenyl)vinyl]imidazo[2,1-b][1,3]thiazol-5-yl}carbonyl)-1,2,3,4-tetrahydroquinoline]",,34.6,90.6,,
"O=C(Nc1nc(C(F)(F)F)cs1)c1c(/C=C/c2cccc(OC(F)F)c2OC2CCCC2)nc2sccn12 [Example 17, 6-{(E)-2-[2-Cyclopentyloxy-3-(difluoromethoxy)phenyl]vinyl}-N-[4-(trifluoromethyl)-1,3-thiazol-2-yl]imidazo[2,1-b][1,3]thiazole-5-carboxamide]",250 to 1000,85.3,94.6,,
"CC(C)CCOc1c(/C=C/c2nc3sccn3c2C(=O)Nc2nc(C(F)(F)F)cs2)cccc1OC(F)F [Example 32, 6-{(E)-2-[3-(Difluoromethoxy)-2-[3-methylbutoxy)phenyl]vinyl}-N-[4-(trifluoromethyl)-1,3-thiazol-2-yl]imidazo[2,1-b][1,3]thiazole-5-carboxamide]",,63.7,96.6,,
"CC(C)(C)COc1c(/C=C/c2nc3sccn3c2C(=O)Nc2nc(C(F)(F)F)cs2)cccc1OC(F)F [Example 18, 6-{(E)-2-[3-Difluoromethoxy-2-(2,2-dimethylpropoxy)phenyl]vinyl}-N-[4-(trifluoro-methyl)-1,3-thiazol-2-yl]imidazo[2,1-b][1,3]thiazole-5-carboxamide]",< 100,96.9,98.2,,
"CC(C)(C)COc1c(/C=C/c2nc3sccn3c2C(=O)NCc2cccc(C(F)(F)F)c2)cccc1OC(F)F [Example 25, 6-{(E)-2-[3-(Difluoromethoxy)-2-(2,2-dimethylpropoxy)phenyl]vinyl}-N-(3-trifluoromethylbenzyl)imidazo[2,1-b][1,3]thiazole-5-carboxamide]",,0,18.2,,
"COc1cccc(/C=C/c2nc3sccn3c2C(=O)Nc2nc(C(F)(F)F)co2)c1OCC(C)(C)C [Example 13, 6-{[(E)-2-(2,2-Dimethylpropoxy)-3-methoxyphenyl]vinyl}-N-[4-(trifluoromethyl)-1,3-oxazol-2-yl]imidazo[2,1-b][1,3]thiazole-5-carboxamide]",,,,10.75,31.51
"O=C(Nc1nc(C(F)(F)F)cs1)c1c(/C=C/c2cccc(O)c2O)nc2sccn12 [Example 19, 6-[(E)-2-(2,3-Dihydroxyphenyl)vinyl]-N-[4-(trifluoromethyl)-1,3-thiazol-2-yl]imidazo[2,1-b][1,3]thiazole-5-carboxamide]",,13.9,4.88,,
"CC(C)(C)COc1c(/C=C/c2nc3ccccn3c2C(=O)Nc2nc(C3CCC3)cs2)cccc1OC(F)F [Example 40, N-(4-Cyclobutyl-1,3-thiazol-2-yl)-2-{(E)-2-[3-(difluoromethoxy)-2-(2,2-dimethyl-propoxy)phenyl]vinyl}imidazo[1,2-c]pyridine-3-carboxamide]",,,,56.41,72.35
COc1cccc(/C=C/c2nc3ccccn3c2C(=O)Nc2nc(C(F)(F)F)cs2)c1OCC(C)(C)C [Example 37],< 100,94.9,97.9,,
"COc1cccc(/C=C/c2nc3sccn3c2C(=O)Nc2nc(-c3ccc(C#N)cc3)cs2)c1OCC(C)(C)C [Example 15, N-[4-(4-Cyanophenyl)-1,3-thiazol-2-yl]-6-{(E)-2-[2-(2,2-dimethylpropoxy)-3-methoxyphenyl]vinyl}imidazo[2,1-b][1,3]thiazole-5-carboxamide]",,20.7,26.6,,
"COc1cccc(/C=C/c2nc3sccn3c2C(=O)Nc2nc(C(C)(C)C)cs2)c1OCC(C)(C)C [Example 8, 6-{(E)-2-[2-(2,2-Dimethylpropoxy)-3-methoxyphenyl]vinyl}-N-[4-(tert-butyl)-1,3-thiazol-2-yl]imidazo[2,1-b][1,3]thiazole-5-carboxamide]",< 100,88.1,91.1,,
"CC(C)(C)COc1c(/C=C/c2nc3sccn3c2C(=O)NCC(F)(F)F)cccc1OC(F)F [Example 31, 6-{(E)-2-[3-(Difluoromethoxy)-2-(2,2-dimethylpropoxy)phenyl]vinyl}-N-(2,2,2-trifluoroethyl)imidazo[2,1-b][1,3]thiazole-5-carboxamide]",,60.9,97.7,,
"CC(C)(C)COc1c(/C=C/c2nc3sccn3c2C(=O)Nc2ncc(C(F)(F)F)cc2Cl)cccc1OC(F)F [Example 27, N-[3-Chloro-5-(trifluoromethyl)pyridin-2-yl]-6-{(E)-2-[3-(difluoromethoxy)-2-(2,2-dimethylpropoxy)phenyl]vinyl}imidazo[2,1-b][1,3]thiazole-5-carboxamide]",,25.7,33.9,,
COc1cccc(/C=C/c2nc3sccn3c2C(=O)N2CCn3c(nnc3C(F)(F)F)C2)c1OCC(C)(C)C [Example 14],,,,10.33,15.45
CCCCCOc1c(/C=C/c2nc3sccn3c2C(=O)Nc2nc(C3CC3)cs2)cccc1OC(F)F [Example 34],100 to 250,78.1,95,,
"COc1cccc(/C=C/c2nc3sccn3c2C(=O)Nc2nc(C(F)(F)F)cs2)c1OC1CCCC1 [Example 16, 6-[(E)-2-(2-Cyclopentyloxy-3-methoxyphenyl)vinyl]-N-[4-(trifluoromethyl)-1,3-thiazol-2-yl]imidazo[2,1-b][1,3]thiazole-5-carboxamide]",250 to 1000,81.7,93.1,,
